From patent US7960377B2 (priority 2008, dated 2011) come the findings set out here.

What is called EC50 is the concentration that produces a half-maximal response.

Read-outs that look alike come from different tables or passages of the source. Marks after values point to notes of the source that are not given here.

Common to all, as to assay: cell-based
Test [1] addresses human CB1 receptor (Homo sapiens, UniProt P21554).
Test [2] deals with human CB2 receptor (Homo sapiens, UniProt P34972). In kind it is cell-based.
Chain of human CB2 receptor (P34972 whole entry): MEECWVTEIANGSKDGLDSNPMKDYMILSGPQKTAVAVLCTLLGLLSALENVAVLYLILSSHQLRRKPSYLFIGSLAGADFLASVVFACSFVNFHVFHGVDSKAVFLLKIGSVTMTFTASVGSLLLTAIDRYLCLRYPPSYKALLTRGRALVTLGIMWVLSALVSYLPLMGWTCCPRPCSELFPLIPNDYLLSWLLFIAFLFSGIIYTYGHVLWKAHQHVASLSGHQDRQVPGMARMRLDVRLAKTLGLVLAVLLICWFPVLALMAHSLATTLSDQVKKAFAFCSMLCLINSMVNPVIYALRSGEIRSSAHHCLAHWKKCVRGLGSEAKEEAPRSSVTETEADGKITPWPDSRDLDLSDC
For test [3], the target named is T1, rat CB2 receptor (Rattus norvegicus, UniProt Q9QZN9).
T1 sequence (Q9QZN9 1-360): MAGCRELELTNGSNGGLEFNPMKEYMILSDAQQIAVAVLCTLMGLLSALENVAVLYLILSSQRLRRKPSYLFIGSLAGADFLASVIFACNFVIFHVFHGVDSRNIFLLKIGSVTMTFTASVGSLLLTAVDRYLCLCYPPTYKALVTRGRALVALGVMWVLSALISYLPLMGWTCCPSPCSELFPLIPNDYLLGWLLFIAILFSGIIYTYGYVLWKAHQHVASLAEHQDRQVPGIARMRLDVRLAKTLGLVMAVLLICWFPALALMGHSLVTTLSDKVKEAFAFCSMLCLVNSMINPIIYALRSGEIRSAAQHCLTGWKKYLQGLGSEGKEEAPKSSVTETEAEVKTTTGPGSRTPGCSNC
In kind it is cell-based. Conditions: for inverse agonist mark, rat CB2 receptor: asterisk at the compound number.

Chain of human CB1 receptor (P21554 whole entry): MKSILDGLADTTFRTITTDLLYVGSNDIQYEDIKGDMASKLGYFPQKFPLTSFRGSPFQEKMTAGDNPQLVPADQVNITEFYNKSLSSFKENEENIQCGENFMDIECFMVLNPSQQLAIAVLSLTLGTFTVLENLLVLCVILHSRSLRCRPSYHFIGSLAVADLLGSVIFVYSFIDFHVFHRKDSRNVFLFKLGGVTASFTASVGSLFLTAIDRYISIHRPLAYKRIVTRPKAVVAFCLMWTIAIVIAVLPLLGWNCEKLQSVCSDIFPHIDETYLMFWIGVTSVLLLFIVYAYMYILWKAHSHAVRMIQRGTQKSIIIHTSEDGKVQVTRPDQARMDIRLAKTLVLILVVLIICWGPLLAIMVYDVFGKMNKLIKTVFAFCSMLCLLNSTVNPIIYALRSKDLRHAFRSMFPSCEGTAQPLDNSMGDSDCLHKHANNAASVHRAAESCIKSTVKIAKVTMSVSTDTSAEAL

For the compound `CC(C)(C)c1cc(NC(=O)c2cnc3c(c2)N(S(=O)(=O)N2CCC(C(F)(F)F)CC2)CCO3)on1` [Example 153, N-(3-tert-butylisoxazol-5-yl)-1-(4-(trifluoromethyl)piperidin-1-ylsulfonyl)-2,3-dihydro-1H-pyrido[2,3-b][1,4]oxazine-7-carboxamide], the half-maximal effective concentration (EC50) in test [1] was not above 0.3 µM; in test [2], more than 30 µM; in test [3], not above 30 nM. The “inverse agonist mark, rat CB2 receptor” value in test [3] was 146, 148, 149, 150, 151, 152, 153*, 154*, 155, 156, 157, 163, 164,.

For the compound `CC(C)(CO)NC(=O)c1cnc2c(c1)N(S(=O)(=O)N1CCC(c3ccccc3)CC1)CCO2` [Example 160, N-(1-hydroxy-2-methylpropan-2-yl)-1-(4-phenylpiperidin-1-ylsulfonyl)-2,3-dihydro-1H-pyrido[2,3-b][1,4]oxazine-7-carboxamide], the EC50 in test [1] is more than 30 µM; in test [2] it was more than 30 µM; in test [3], more than 30000 nM.

In test [1], `CC(C)(C)c1cc(NC(=O)c2cnc3c(c2)N(S(=O)(=O)N2CCC(c4ccccc4)CC2)CCO3)no1` [Example 162, N-(5-tert-butylisoxazol-3-yl)-1-(4-phenylpiperidin-1-ylsulfonyl)-2,3-dihydro-1H-pyrido[2,3-b][1,4]oxazine-7-carboxamide] registered a 50% effective concentration (EC50) of more than 30 µM. For the same compound, the “inverse agonist mark, human CB2 receptor” value in test [2] (asterisk at the compound number) was 128, 129, 130, 132, 133, 140, 141, 142, 143, 147, 148, 149, 162*,. In addition, the “inverse agonist mark, rat CB2 receptor” value in test [3] is 108, 114, 117, 122, 126, 128, 129, 130, 141, 147, 162*, 165*, 179,.

Consider `CCC(C)(C)NC(=O)c1cnc2c(c1)N(S(=O)(=O)N1CCC(F)CC1)CCO2` [Example 167, 1-(4-fluoropiperidin-1-ylsulfonyl)-N-tert-pentyl-2,3-dihydro-1H-pyrido[2,3-b][1,4]oxazine-7-carboxamide], for which the EC50 in test [1] is more than 30 µM; in test [2], not above 0.03 µM; in test [3], not above 30 nM.

Turning to `CCC(C)(C)NC(=O)c1cnc2c(c1)N(S(=O)(=O)N1CCC(N3CCCC3)CC1)CCO2` [Example 177, N-tert-pentyl-1-(4-(pyrrolidin-1-yl)piperidin-1-ylsulfonyl)-2,3-dihydro-1H-pyrido[2,3-b][1,4]oxazine-7-carboxamide], the EC50 in test [1] was more than 30 µM; in test [2], more than 30 µM; in test [3], more than 30000 nM.

Consider `CC(C)(CO)NC(=O)c1cnc2c(c1)N(S(=O)(=O)N1CCC(Cl)CC1)CCO2` [Example 186, 1-(4-chloropiperidin-1-ylsulfonyl)-N-(1-hydroxy-2-methylpropan-2-yl)-2,3-dihydro-1H-pyrido[2,3-b][1,4]oxazine-7-carboxamide], for which the concentration giving a half-maximal response (EC50) in test [1] was more than 30 µM; in test [2], more than 30 µM; in test [3], not above 30 nM.

Regarding `CC(C)(CO)CNC(=O)c1cnc2c(c1)N(S(=O)(=O)N1CCc3ccccc3C1)CCO2` [Example 191, 1-(3,4-dihydroisoquinolin-2(1H)-ylsulfonyl)-N-(3-hydroxy-2,2-dimethylpropyl)-2,3-dihydro-1H pyrido[2,3-b][1,4]oxazine-7-carboxamide], the 50% effective concentration (EC50) in test [1] is more than 30 µM; in test [2] it was more than 30 µM; in test [3] it was not above 30 nM.

With `CN(CC(C)(C)CO)C(=O)c1cnc2c(c1)N(S(=O)(=O)N1CCc3ccccc3C1)CCO2` [Example 192, 1-(3,4-dihydroisoquinolin-2(1H)-ylsulfonyl)-N-(3-hydroxy-2,2-dimethyl-propyl)-N-methyl-2,3-dihydro-1H-pyrido[2,3-b][1,4]oxazine-7-carboxamide], the EC50 in test [1] was more than 30 µM; in test [2], more than 30 µM; in test [3], more than 30000 nM.

In the case of `CC(C)(C)NC(=O)c1cnc2c(c1)N(S(=O)(=O)N1CC(F)(F)C1)CCO2` [Example 193, N-tert-butyl-1-(3,3-difluoroazetidin-1-ylsulfonyl)-2,3-dihydro-1H-pyrido[2,3-b][1,4]oxazine-7-carboxamide], the figures for the EC50 in test [1], in test [2] and in test [3] were more than 30 µM, more than 30 µM and not above 30 nM, respectively.

As to `CCC(C)(C)NC(=O)c1cnc2c(c1)N(S(=O)(=O)N1CC(F)(F)C1)CCO2` [Example 194, 1-(3,3-difluoroazetidin-1-ylsulfonyl)-N-tert-pentyl-2,3-dihydro-1H-pyrido[2,3-b][1,4]oxazine-7-carboxamide], the half-maximal effective concentration (EC50) in test [1] was more than 30 µM; in test [2] it was more than 30 µM; in test [3] it was not above 30 nM.

On to `O=C(NC1(C(=O)O)CC1)c1cnc2c(c1)N(S(=O)(=O)c1ccc(C(F)(F)F)cc1)CCO2` [Example 206, 1-(1-(4-(trifluoromethyl)phenylsulfonyl)-2,3-dihydro-1H-pyrido[2,3-b][1,4]oxazine-7-carboxamido)cyclopropanecarboxylic acid], for which the 50% effective concentration (EC50) in test [1] was more than 30 µM; in test [2] (change in intracellular cAMP, CHO-K1 hCB2 cells, class AR, read-out: EC50 values for human CB2 receptor), more than 30 µM; in test [3], more than 30000 nM.

Regarding `CC(C)(C)NC(=O)c1cnc2c(c1)N(Cc1ccc(F)cc1)C(=O)CO2` [Example 218, N-tert-butyl-1-(4-fluorobenzyl)-2-oxo-2,3-dihydro-1H-pyrido[2,3-b][1,4]oxazine-7-carboxamide], the results for the concentration giving a half-maximal response (EC50) in test [1], in test [2] and in test [3] were more than 30 µM, not above 0.03 µM and not above 30 nM, respectively.
